Assay results: US7135468B2, “Antibacterial compounds” (Abbott Laboratories, priority 2004, dated 2006)

Target: bacterial protein synthesis (S30 Streptococcus pneumoniae extract)
Experiment: Translation assay, firefly luciferase reporter system with S30 Streptococcus pneumoniae extract
Format: biochemical, Streptococcus pneumoniae ATCC 46919
Details: cell-free S30 extract from quinolone-susceptible S. pneumoniae ATCC 46919, luciferase mRNA; read-out: IC50, concentration causing 50% inhibition of bacterial protein synthesis
Experimental: Bacterial protein synthesis inhibitory activity of representative compounds of this invention having formula (I) and the commercially-available antibacterials in TABLE 2 was determined by translation assays using the firefly luciferase reporter system described by Murray et al., (2001), “Staphylococcus aureus Cell Extract Transcription-Translation Assay: Firefly Luciferase Reporter System for Evaluating Protein Translation Inhibitors,” Antimicrob. Agents Chemother. 45(6): 1900–1904, but replacing the Staphylococcus aureus S30 extract described therein with S30 Streptococcus pneumoniae extract from quinolone-succeptable Streptococcus pneumoniae ATCC 46919, and replacing plasmid coding for the luciferase gene with mRNA (encoding produced by in an in vitro environment transcription from the plasmid pAS10rbs3) which encoded the luciferase gene with an upstream Streptococcus pneumoniae promoter and Shine-Dalgarno site.

CC(=O)NC[C@H]1CN(c2ccc(N3CCOCC3)c(F)c2)C(=O)O1 [Linezolid]
IC50: ~3000 nM
